Assay [1] relates to PMA/Ionomycin-induced NF-κB reporter gene activity. Nature of the assay: NF-κB luciferase reporter gene assay, PMA/Ionomycin-stimulated HEK293-NF-κB-luc cells. Format: cell-based. Conditions: for IC50: Table II, read-out: IC50, Inhibition of antigen receptor-mediated Nf-κB; for inhibition of PMA/Ionomycin-induced NF-κB luciferase activity: HEK293. The text has this: The strategy for compound library screening entailed using phorbol ester (phorbol myristic acetate [PMA]) and Ca^2+-ionophore Ionomycin to achieve PKC activation, mimicking the initiating events in the antigen receptor pathway. For convenience, we used HEK293 epithelial cells, in which it has previously been shown by siRNA-mediated gene silencing and transfection of dominant-negative mutants that PMA/Ionomycin-induced NF-κB activation is dependent on CARMA1, Bcl-10, and MALT. HEK293 cells were stably transfected with a luciferase reporter gene driven by a NF-κB responsive promoter, and the responsiveness of this integrated promoter to various NF-κB inducing stimuli was confirmed, including PMA/Ionomycin and TNF. Using these cells, 96- and 384-well plate-based high throughput screening (HTS) assays were established, with good assay performance characteristics (Z′>0.5) (PubChem AID=1384). We initially screened 53,280 chemical compounds at an average concentration of 5 μM, of which 519 primary hits were obtained (based on cut-off of 50% inhibition). Of these, 248 confirmed upon repeat testing (FIG. 1).
Cell engineering. HEK293 cells were co-transfected with pUC13-4xNFκB-Luc and p-TK-puromycin-resistance plasmids. Stable clones were selected by culture in Dulbecco's Modified Eagle's Media (InVitrogen) supplemented with 10% heat-inactivated fetal bovine serum (FBS) (Hyclone), 1% v/v penicillin-streptomycin (InVitrogen) containing 1 μg/mL puromycin. Individual clones were tested for responsiveness to PMA/Ionomycin- and to TNF-induced NF-κB reporter gene activity, and a clone was selected for HTS.
HTS. NF-κB-luciferase expressing HEK293 cells were seeded at […] per well in white 96 well plates (Greiner Bio-One) in 90 μl of DMEM and incubated overnight. 10 μl of compound-containing solution was added to each well (final 1.5 μg/mL in 1% DMSO) using a liquid handler (Biomek™ FX; Beckman Coulter). After 2 h incubation, cells were stimulated using 11 μl of a PMA (final 100 ng/mL; Calbiochem) and ionomycin (final 50 ng/mL; Calbiochem) in DMEM. Cell plates were incubated for 16 h before media was removed and 40 μl of 0.5× passive lysis buffer (Promega Corp.) was added to cell plates. Plates were allowed to stand at room temperature for at least 15 minutes before adding 40 μl of 0.125× luciferin substrate (Promega Corp.) to each well. Plates were analyzed within 30 seconds with a Criterion Analyst™ using the luminescence method (0.1 second read/well).
Several compounds synthesized by the methods described herein were tested for their efficacy at inhibiting Nf-κB activation.
Background: In a reporter assay the amount or activity of a reporter protein is the signal.

Assay [2] concerns PMA/Ionomycin-stimulated IL-8 production. In words: PMA/Ionomycin-stimulated IL-8 production by HEK293 reporter cells (ELISA). Format: cell-based, human. Conditions: CID-2998237 at concentrations as high as 4 μM. The method, then:
(§1) (A) Structures of two hit compounds, CID-2858522 (left) and CID-2998237 (right) are shown; (B, C) 293-NF-κB-luc cells were pretreated for 2 hrs with various concentration of either CID-2858522 (B) or CID-29982387 (C) and then stimulated with TNF (10 ng/mL) or PMA/lonomycin (10 ng/mL; 5 ng/mL) for 16 h. Luciferase activity was measured and data were expressed as a percentage relative to control treatment with DMSO only (mean±SD; n=3). (D) 293-NF-κB-luc cells were pretreated for 2 h with various concentrations of CID-2858522 or CID-2998237, then stimulated with PMA/lonomycin for 16 h. IL-8 release into the medium was measured, expressing data as a percentage relative to control cultures treated with DMSO (mean±SD; n=3). (E) 293-NF-κB-luc cells were pretreated with CID-2858522 and then stimulated with PDBu for 16 h, IL-8 production and NF-κB luciferase activity were measured as above. (F) 293-NF-κB-luc cells were pretreated for 2 h with various concentrations of CID-2858522 or a PKC inhibitor (Bisindolylmaleimide I) at 1 μM followed by PMA/Ionomycin (10 ng/mL) stimulation for 2 h, then p65-DNA-binding activity was measured in nuclear extracts (10 μg protein), expressing data as fold-increase relative to unstimulated cells (mean±SD; n=3).
Lymphokine measurements. Human IL-2 or IL-8 levels in culture medium were measured by Enzyme-Linked Immunosorbent Assays (ELISAs), using BD OptEIA ELISAs (BD Biosciences, San Diego, Calif.), according to the manufacturer's protocol, using 96-well ELISA plates (BD Biosciences) and measuring absorbance within 30 minutes of initiating reactions using a SpectraMax 190 spectrophotometer (Molecular Devices).
For orientation: ELISA stands for enzyme-linked immunosorbent assay.

Assay [3] deals with TNF-induced NF-κB reporter gene activity. Nature of the assay: TNF-induced NF-κB reporter counter-screen in HEK293-NFκB-Luc cells. Format: cell-based. To be noted: TNF 10 ng/mL; CID-2858522 at concentrations as high as 4 μM. The method, then: as §1
Counter Screening and Secondary Assays. […] Luciferase activity was measured using Britelite kit (Perkin Elmer). […]

One may read the IC50 as the concentration at which inhibition is half-maximal. For the compound `CCCCNc1nc2cc(C)c(C)cc2n1CC(=O)c1cc(C(C)(C)C)c(O)c(C(C)(C)C)c1` [Compound 40, 1-(3,5-di-tert-butyl-4-hydroxyphenyl)-2-(2-(butylamino)-5,6-dimethyl-1H-benzo[d]imidazol-1-yl)ethanone], the IC50 in assay [1] came out at 100 nM.

Regarding `COC(=O)C1=C(CN2CCCc3ccccc32)NC(=O)NC1c1ccc(F)cc1` (centres unmarked) [CID-2998237], the “effect on PMA/Ionomycin-induced IL-8 production” value in assay [2] is given as “minimal effect”. The “inhibition of PMA/Ionomycin-induced NF-κB luciferase activity” value in assay [1] is listed as “less potent”. Moreover, the “inhibition of TNF-induced NF-κB reporter gene activity” value in assay [3] was “some modest inhibition”.

Take z-ITED-fmk [reference compound]: in assay [1], the “inhibition of PMA/Ionomycin-induced NF-κB luciferase activity” value was “significantly inhibit”. Turning to `COc1c(C(C)(C)C)cc(C(=O)Cn2c(NCCCO)nc3cc(C)c(C)cc32)cc1C(C)(C)C` [Compound 32, 1-(3,5-di-tert-butyl-4-methoxyphenyl)-2-(2-(3-hydroxypropylamino)-5,6-dimethyl-1H-benzo[d]imidazol-1-yl)ethanone], in assay [1], the concentration for half-maximal inhibition (IC50) is 70 nM. `COCCCNc1nc2cc(C)c(C)cc2n1CC(=O)c1cc(C(C)(C)C)c(OC)c(C(C)(C)C)c1` [Compound 34, 2-(2-(3-methoxypropylamino)-5,6-dimethyl-1H-benzo[d]imidazol-1-yl)-1-(3,5-di-tert-butyl-4-methoxyphenyl)ethanone]: in assay [1], the IC50 was 250 nM.

Turning to `COCCCNc1nc2cc(C)c(C)cc2n1CC(=O)c1cc(C(C)(C)C)c(O)c(C(C)(C)C)c1` [Compound 33, 2-(2-(3-methoxypropylamino)-5,6-dimethyl-1H-benzo[d]imidazol-1-yl)-1-(3,5-di-tert-butyl-4-hydroxyphenyl)ethanone], in assay [1], the half-maximal inhibitory concentration (IC50) is 250 nM.

Values taken from US20090247520A1, “INHIBITORS OF ANTIGEN RECEPTOR-INDUCED NF-kappa B ACTIVATION” (The Burnham Institute for Medical Research, priority 2008, published 2009).
